This note sets out measurements from patent US6350586B2, “Method for isolating inhibitors of protease activity” (Long Island Jewish Medical Center, priority 1998, dated 2002).

Format in all cases: biochemical
Experiment [1] concerns succinylated casein. Description: Protease assay using succinylated casein substrate with TNBSA detection. To be noted: 100 μg succinylated casein, 37° C., 1 hour. How it is done:
(§1) Assay Conditions. Elastase assay using succinylated elastin: A modified version of the method described in the Pierce Quanticleave™ protease assay kit II (Pierce Chemical Co.) was used for the elastase assay. The assay contained 100 μg of succinylated substrate (gelatin, elastin, or casein) and 50 μl of enzyme sample to be assayed, and the reaction was brought up to a final volume of 150 μl with BupH buffer or 50 mM sodium borate, pH 8.0 (50 mM sodium borate, pH 8.0, is a suitable substitute for BupH buffer). All reactions were prepared in 96-well Falcon 3097 flat-bottom microtiter plates (Beckton Dickinson, N.J.) The reactions were then incubated at 37° C. for 60 min. Fifty microliters of a 0.03% solution of TNBSA was then added to each reaction and left for 20 min at room temperature. The optical density of each reaction was then determined using a Bio-Whittaker microplate reader 2001 (Bio-Whittaker, Walkersville, Md.) at 450 nm. Blank reactions were also prepared which contained buffer and protease, buffer and substrate and buffer only. All sample dilutions were prepared in BupH buffer or 50 mM sodium borate buffer, pH 8.0, as were stock solutions of 1 mg/ml elastase and trypsin.
(§2) Comparison of Elastase and Trypsin Substrate Affinities. […] and 1 μg/ml of elastase and trypsin were assayed using succinylated elastin, gelatin, and casein substrate. Enzyme dilutions were prepared from a 1 mg/ml stock of trypsin and elastase in BupH buffer or 50 mM sodium borate, pH 8.0. Assays contained 50 μl enzyme and 100 μg succinylated substrate and were made up to a volume of 150 μl with BupH buffer or 50 mM sodium borate buffer, pH 8.0. Digests were incubated at 37° C. for 1 hour. All digests were prepared in duplicate and optical densities were measured at 450 nm. Blank reaction contained buffer/enzyme. Blank reading was subtracted from the final reaction optical density to give corrected absorbance values. Standard deviations are given in parentheses. The activity of elastase varies with substrate in the following order: elastin>casein>gelatin. The activity of trypsin varies with substrate in the following order: gelatin>casein>elastin. Substrate affinity was evaluated by the level of absorbance at 450 nm each protease generated with each substrate.

The nature of experiment [2]: Elastase assay using Suc(Ala)3-nA (SANA). The settings on record: room temperature, 20 minutes. How it is done:
Elastase assay using Suc(Ala)3-nA (SANA). The following method was used for testing PPE (CalBio-chem) activity. A 25 mM stock solution of SANA (Sigma) in dimethyl sulfoxide (Sigma), 1 mg/ml stock solution of elastase in distilled water, and 0.2 M Tris buffer pH 8.0 with 0.1% Triton X-100(Sigma) was prepared. The assay contained 12 μl of SANA and 50 μl of the enzyme sample and was made up to 200 μl with 0.2 M Tris buffer. All reactions were prepared in 96-well Falcon 3097 flat-bottom microtiter plates (Beckton Dickinson) and carried out at room temperature. The optical density of each digest was recorded for 20 min, at 30 second intervals, at 405 nm using a Bio-Whittaker microplate reader 2001 (Bio-Whittaker).
(§3) Comparison of Succinyl Elastin with SANA. The sensitivity of the succinylated elastin assay was compared to an elastase assay that uses SANA, a synthetic elastase substrate. 50 μl of 1000, 100, 10 and 1 ng/ml elastase was used to digest 100 μg of succinylated elastin and 12 μl of 12 mM SANA. The succinylated elastin digest was carried out at 37° C. for 1 hour. The SANA elastase assay was carried out at room temperature for 20 minutes. Optical densities were measured at 450 nm for succinylated elastin assay and 405 nm for SANA elastase assay. Blank reaction contained buffer/enzyme. Blank reading was subtracted from the final reaction optical density to give corrected absorbance values. Standard deviations are given in parentheses.

The subject of experiment [3] is succinylated gelatin. The experiment is described as follows: Protease assay using succinylated gelatin substrate with TNBSA detection. The settings on record: 100 μg succinylated gelatin, 37° C., 1 hour. Here is the method: as §1, §2
For experiment [4], the system named is succinylated elastin. The experiment is described as follows: Protease assay using succinylated elastin substrate with TNBSA detection. To be noted: 37° C., 1 hour; for corrected absorbance at 450 nm, substrate Elastin: 100 μg succinylated elastin. Here is the method: as §1, §2, §3

Regarding “Elastase: Porcine pancreatic elastase (PPE; 297 units/mg) (EC 3.4.21.36) purchased from CalBiochem”, the figures for the “corrected absorbance at 450 nm, substrate Casein” value in experiment [1] (protease concentration 1) and in experiment [1] (protease concentration 10) were 0.071 and 0.28, respectively. In addition, the “corrected optical density at 405 nm, SANA” value is reported as 0 in experiment [2] (elastase 1 ng/ml), 0 in experiment [2] (elastase 10 ng/ml), 0.011 (±0.004) in experiment [2] (elastase 100 ng/ml) and 0.129 (±0.026) in experiment [2] (elastase 1000 ng/ml). Also, the “corrected absorbance at 450 nm, substrate Gelatin” value in experiment [3] (protease concentration 1) came out at 0.037; in experiment [3] (protease concentration 10) it was 0.120. Also, the “corrected optical density at 450 nm, Succinylated Elastin” value was 0.0086 (±0.003) in experiment [4] (elastase 1 ng/ml), 0.01 (±0.001) in experiment [4] (elastase 10 ng/ml), 0.015 (±0.004) in experiment [4] (elastase 100 ng/ml) and 0.054 (±0.006) in experiment [4] (elastase 1000 ng/ml). Further, the “corrected absorbance at 450 nm, substrate Elastin” value came to 0.085 in experiment [4] (protease concentration 1) and 0.377 in experiment [4] (protease concentration 10).

B1: Trypsin: Protease from the Pierce Quanticleave protease assay kit II (13564 units/mg) (protein, UniProt P00760 24-246, looked up)
Serine protease 1: IVGGYTCGANTVPYQVSLNSGYHFCGGSLINSQWVVSAAHCYKSGIQVRLGEDNINVVEGNEQFISASKSIVHPSYNSNTLNNDIMLIKLKSAASLNSRVASISLPTSCASAGTQCLISGWGNTKSSGTSYPDVLKCLKAPILSDSSCKSAYPGQITSNMFCAGYLEGGKDSCQGDSGGPVVCSGKLQGIVSWGSGCAQKNKPGVYTKVCNYVSWIKQTIASN
B1: the “corrected absorbance at 450 nm, substrate Casein” value in experiment [1] (protease concentration 1) amounted to 0.106; in experiment [1] (protease concentration 10), 0.158. In addition, the “corrected absorbance at 450 nm, substrate Gelatin” value was determined as 0.179 in experiment [3] (protease concentration 1) and 0.354 in experiment [3] (protease concentration 10). Besides, the “corrected absorbance at 450 nm, substrate Elastin” value in experiment [4] (protease concentration 1) turned out to be 0.024; in experiment [4] (protease concentration 10) it was 0.049.
